Patent US20050282743A1, “Molecular interactions in cells” (Arbor Vita Corporation, priority 2001, published 2005)
Like-named read-outs stand apart in the source and are kept apart here. Blank lines part the entries; values can stand above or below the molecule they belong to. Peptide text beside a SMILES is read from it. * marks the point of attachment. Biotin = O=C1N[C@H]2[C@H](CS[C@H]2CCCCC(=O)*)N1

Tests used:
[1] = biological target: T1, PDZ-domain polypeptide (GST/PDZ fusion protein) (Homo sapiens, UniProt Q92796); experiment: Apparent affinity (Kd) by titration of PL peptide in the G assay; format: binding; details: PDZ NeDLG
T1 construct: made in house; host or cells: E. coli (DH5alpha, BL21 or JM109)
T1 sequence (Q92796 1-817): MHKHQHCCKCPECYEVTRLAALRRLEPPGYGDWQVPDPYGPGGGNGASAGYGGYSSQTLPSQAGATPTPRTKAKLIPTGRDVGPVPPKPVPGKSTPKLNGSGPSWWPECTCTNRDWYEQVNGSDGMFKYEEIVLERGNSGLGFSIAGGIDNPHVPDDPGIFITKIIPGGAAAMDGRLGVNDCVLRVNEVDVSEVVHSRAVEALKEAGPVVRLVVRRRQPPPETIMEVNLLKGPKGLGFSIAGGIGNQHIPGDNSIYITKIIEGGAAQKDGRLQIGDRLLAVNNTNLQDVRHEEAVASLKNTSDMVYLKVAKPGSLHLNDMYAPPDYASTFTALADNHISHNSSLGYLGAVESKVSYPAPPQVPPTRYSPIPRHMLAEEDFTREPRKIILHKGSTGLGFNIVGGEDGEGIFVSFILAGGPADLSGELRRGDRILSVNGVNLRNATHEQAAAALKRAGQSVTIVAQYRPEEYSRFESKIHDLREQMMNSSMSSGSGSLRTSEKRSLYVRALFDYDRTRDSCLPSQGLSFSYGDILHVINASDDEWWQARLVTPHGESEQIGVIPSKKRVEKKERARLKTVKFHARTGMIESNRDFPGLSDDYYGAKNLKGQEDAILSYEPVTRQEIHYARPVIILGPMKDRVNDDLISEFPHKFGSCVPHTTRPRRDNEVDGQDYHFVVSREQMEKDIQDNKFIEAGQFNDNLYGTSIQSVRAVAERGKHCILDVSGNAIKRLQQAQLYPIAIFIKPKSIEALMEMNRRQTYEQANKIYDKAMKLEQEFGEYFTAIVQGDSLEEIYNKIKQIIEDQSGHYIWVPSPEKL
Outline: (§1)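 A fixed concentration of GST/PDZ fusion protein, 5 ug/ml by default, was mixed in solution with increasing labeled PL peptide (e.g. 0.1 uM-1 mM). Reaction times ranged from 10 minutes to 2 days at 4-37° C. Complexes were separated from free peptide and detected via the label as in the G assay, apparent affinity coming from the saturating concentration.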

[2] = biological target: T2, PDZ-domain polypeptide (GST/PDZ fusion protein) (Homo sapiens, UniProt Q96JH8); experiment: as above; format: binding; details: PDZ FLJ 10324, PDZ Domain 1
T2 construct: made in house; host or cells: E. coli (DH5alpha, BL21 or JM109)
T2 sequence (Q96JH8 1-1075): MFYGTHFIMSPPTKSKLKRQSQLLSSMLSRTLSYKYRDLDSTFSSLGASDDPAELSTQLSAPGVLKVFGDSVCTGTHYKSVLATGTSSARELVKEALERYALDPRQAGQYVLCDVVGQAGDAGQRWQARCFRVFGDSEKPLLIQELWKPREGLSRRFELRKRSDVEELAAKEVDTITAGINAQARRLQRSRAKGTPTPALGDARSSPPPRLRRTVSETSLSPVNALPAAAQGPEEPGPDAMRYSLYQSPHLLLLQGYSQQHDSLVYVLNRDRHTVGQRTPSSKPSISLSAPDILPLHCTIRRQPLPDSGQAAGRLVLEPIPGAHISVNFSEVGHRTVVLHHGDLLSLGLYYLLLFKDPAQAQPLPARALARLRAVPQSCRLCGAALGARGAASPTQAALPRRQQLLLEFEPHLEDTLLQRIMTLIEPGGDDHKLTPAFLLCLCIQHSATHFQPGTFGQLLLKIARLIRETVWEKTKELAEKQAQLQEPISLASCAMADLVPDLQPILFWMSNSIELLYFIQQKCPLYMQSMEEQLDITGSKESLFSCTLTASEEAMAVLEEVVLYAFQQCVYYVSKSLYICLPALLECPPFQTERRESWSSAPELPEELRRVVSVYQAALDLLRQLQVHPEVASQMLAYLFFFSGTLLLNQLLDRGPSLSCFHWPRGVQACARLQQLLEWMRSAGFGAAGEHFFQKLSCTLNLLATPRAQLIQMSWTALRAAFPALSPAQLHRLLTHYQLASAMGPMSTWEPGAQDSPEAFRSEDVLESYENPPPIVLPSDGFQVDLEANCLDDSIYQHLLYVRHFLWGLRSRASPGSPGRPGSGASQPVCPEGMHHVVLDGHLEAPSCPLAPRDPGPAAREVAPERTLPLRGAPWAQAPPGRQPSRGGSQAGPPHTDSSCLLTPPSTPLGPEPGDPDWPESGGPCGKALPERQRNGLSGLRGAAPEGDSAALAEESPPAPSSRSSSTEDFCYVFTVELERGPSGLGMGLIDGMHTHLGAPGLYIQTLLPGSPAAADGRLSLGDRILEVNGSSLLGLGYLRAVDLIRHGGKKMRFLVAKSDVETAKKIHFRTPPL
Outline: as §1

[3] = titration of the PL peptide, read-out: Peptide Optimal Conc (Kd, dissociation constant)

Compound: CC(C)C[C@H](NC(=O)[C@H](C)NC(=O)[C@H](CO)NC(=O)CNC(=O)[C@@H](NC(=O)CCCC[C@@H]1SC[C@@H]2NC(=O)N[C@@H]21)[C@@H](C)O)C(=O)N[C@@H](CCC(N)=O)C(=O)N[C@@H](C)C(=O)N[C@@H](Cc1c[nH]c2ccccc12)C(=O)N[C@@H](CCCNC(=N)N)C(=O)N[C@@H](Cc1c[nH]cn1)C(=O)N[C@H](C(=O)N[C@@H](CO)C(=O)N[C@@H](CCCNC(=N)N)C(=O)N[C@@H](CCC(N)=O)C(=O)N[C@@H](C)C(=O)N[C@H](C(=O)N[C@@H](CCC(=O)O)C(=O)N[C@@H](CO)C(=O)N[C@H](C(=O)N[C@H](C(=O)O)C(C)C)[C@@H](C)O)[C@@H](C)O)[C@@H](C)O [HPV E6 #66 (modified)] (Biotin-TGSALQAWRHTSRQATESTV-OH; C-terminus assumed)
Kd ([1]; PDZ Domain 1, 2, read-out: Peptide Optimal Conc (Kd by titration of the PL peptide)): 1000 nM
Kd ([1]; PDZ Domain 2, read-out: Peptide Optimal Conc (Kd by titration of the PL peptide)): 3500 nM

Kd ([2]; read-out: Peptide Optimal Conc (Kd by titration of the PL peptide)): 300 nM
Compound: CC(C)C[C@H](NC(=O)[C@H](Cc1c[nH]c2ccccc12)NC(=O)[C@H](Cc1c[nH]cn1)NC(=O)[C@H](CCCNC(=N)N)NC(=O)[C@H](CC(C)C)NC(=O)[C@@H](NC(=O)[C@H](Cc1ccccc1)NC(=O)[C@H](CCC(N)=O)NC(=O)[C@H](CCCNC(=N)N)NC(=O)[C@@H](NC(=O)[C@H](CCC(=O)O)NC(=O)CNC(=O)[C@H](CCCNC(=N)N)NC(=O)[C@H](CC(=O)O)NC(=O)[C@@H](NC(=O)[C@H](CC(C)C)NC(=O)[C@H](CCC(=O)O)NC(=O)[C@H](CCCNC(=N)N)NC(=O)CCCC[C@@H]1SC[C@@H]2NC(=O)N[C@@H]21)C(C)C)C(C)C)[C@@H](C)O)C(=O)N[C@@H](CCCCN)C(=O)N[C@H](C(=O)O)C(C)C [Dopamine transporter (Na+-dependent)] (Biotin-RELVDRGEVRQFTLRHWLKV-OH; C-terminus assumed)

Compound: CC[C@H](C)[C@H](NC(=O)[C@H](C)NC(=O)[C@H](CC(C)C)NC(=O)[C@H](Cc1c[nH]c2ccccc12)NC(=O)[C@H](Cc1c[nH]cn1)NC(=O)[C@H](CCC(N)=O)NC(=O)[C@H](CC(C)C)NC(=O)[C@H](CCC(N)=O)NC(=O)[C@H](Cc1ccccc1)NC(=O)[C@H](CCC(N)=O)NC(=O)[C@H](CCCNC(=N)N)NC(=O)[C@@H](NC(=O)[C@H](CC(=O)O)NC(=O)[C@H](CCCNC(=N)N)NC(=O)[C@H](CCC(N)=O)NC(=O)[C@H](C)NC(=O)[C@@H](NC(=O)[C@H](CC(C)C)NC(=O)[C@H](Cc1c[nH]cn1)NC(=O)[C@H](Cc1c[nH]cn1)NC(=O)CCCC[C@@H]1SC[C@@H]2NC(=O)N[C@@H]21)C(C)C)[C@@H](C)CC)C(=O)O [noradrenaline transporter] (Biotin-HHLVAQRDIRQFQLQHWLAI-OH; C-terminus assumed)
Kd ([2]; Peptide Optimal Conc (Kd by titration of the PL peptide)): 600 nM

Kd [2, 3]: 1000 nM
Compound: CC[C@H](C)[C@H](NC(=O)[C@H](Cc1ccc(O)cc1)NC(=O)[C@H](CC(C)C)NC(=O)[C@H](CCC(N)=O)NC(=O)[C@H](Cc1c[nH]cn1)NC(=O)[C@H](CO)NC(=O)[C@H](C)NC(=O)[C@H](CC(C)C)NC(=O)[C@@H](NC(=O)[C@H](CC(=O)O)NC(=O)[C@H](CCSC)NC(=O)[C@H](Cc1ccccc1)NC(=O)[C@@H]1CCCN1C(=O)[C@H](CCCNC(=N)N)NC(=O)[C@@H](NC(=O)[C@H](CC(C)C)NC(=O)[C@H](CC(N)=O)NC(=O)[C@H](CC(=O)O)NC(=O)[C@@H](NC(=O)[C@H](CO)NC(=O)CCCC[C@@H]1SC[C@@H]2NC(=O)N[C@@H]21)[C@@H](C)O)C(C)C)[C@@H](C)O)C(=O)O [presenilin-2] (Biotin-STDNLVRPFMDTLASHQLYI-OH; C-terminus assumed)

Compound: CC[C@H](C)[C@H](NC(=O)[C@H](CO)NC(=O)[C@@H](NC(=O)[C@H](Cc1ccccc1)NC(=O)[C@H](CO)NC(=O)CCCC[C@@H]1SC[C@@H]2NC(=O)N[C@@H]21)[C@@H](C)O)C(=O)N[C@@H](CC(C)C)C(=O)N[C@H](C(=O)N[C@@H](CS)C(=O)N[C@@H](Cc1c[nH]cn1)C(=O)N[C@@H](CCC(N)=O)C(=O)N[C@@H](CCCNC(=N)N)C(=O)N[C@@H](CCCNC(=N)N)C(=O)N[C@H](C(=O)N[C@@H](CCC(N)=O)C(=O)N[C@@H](CCCNC(=N)N)C(=O)N[C@@H](CCCCN)C(=O)N[C@@H](CCC(=O)O)C(=O)N[C@H](C(=O)N[C@H](C(=O)N[C@@H](C)C(=O)O)C(C)C)[C@@H](C)O)[C@@H](C)O)[C@@H](C)O [GluR5-2 (rat)]
Kd ([1]; PDZ Domain 1, 2, titration of the PL peptide, read-out: Peptide Optimal Conc (Kd, dissociation constant)): 100 nM

Compound: CC[C@H](C)[C@H](NC(=O)[C@H](CCCCN)NC(=O)[C@@H](NC(=O)[C@H](CO)NC(=O)[C@@H]1CCCN1C(=O)[C@H](Cc1ccccc1)NC(=O)[C@@H](NC(=O)[C@@H](NC(=O)[C@H](CCCNC(=N)N)NC(=O)[C@H](CCC(=O)O)NC(=O)[C@H](CC(C)C)NC(=O)[C@H](CC(C)C)NC(=O)[C@H](CC(C)C)NC(=O)[C@@H](NC(=O)CNC(=O)[C@@H](NC(=O)CCCC[C@@H]1SC[C@@H]2NC(=O)N[C@@H]21)C(C)C)[C@@H](C)O)C(C)C)[C@@H](C)CC)C(C)C)C(=O)N[C@@H](C)C(=O)N[C@H](C(=O)N[C@@H](CC(C)C)C(=O)N[C@H](C(=O)O)C(C)C)[C@@H](C)O [Adenovirus E4 Type9]
Kd ([1]; PDZ Domain 2, Protein Optimal Conc 5, read-out: Peptide Optimal Conc (Kd by titration of the PL peptide)): 100 nM
Kd ([2]; Protein Optimal Conc 5, read-out: Peptide Optimal Conc (Kd by titration of the PL peptide)): 100 nM

Kd [2, 3]: 1000 nM
Compound: CC[C@H](C)[C@H](NC(=O)[C@H](Cc1ccc(O)cc1)NC(=O)[C@@H](NC(=O)[C@@H]1CCCN1C(=O)[C@H](CCC(N)=O)NC(=O)[C@H](CCC(=O)O)NC(=O)[C@H](CCC(N)=O)NC(=O)[C@H](C)NC(=O)[C@@H](NC(=O)[C@H](CC(C)C)NC(=O)[C@H](CC(C)C)NC(=O)[C@H](CCCNC(=N)N)NC(=O)[C@H](Cc1ccc(O)cc1)NC(=O)[C@H](CCSC)NC(=O)[C@H](C)NC(=O)[C@H](C)NC(=O)[C@@H]1CCCN1C(=O)[C@H](CCSC)NC(=O)[C@@H](NC(=O)[C@H](CCCCN)NC(=O)CCCC[C@@H]1SC[C@@H]2NC(=O)N[C@@H]21)[C@@H](C)O)[C@@H](C)O)C(C)C)C(=O)O [MINT-1] (Biotin-KTMPAAMYRLLTAQEQPVYI-OH; C-terminus assumed)
